From paper PMC3210109, “Flexible catalytic site conformations implicated in modulation of HIV-1 protease autoprocessing reactions” (Retrovirology, 2011)

Legend:
[1] = target: embedded protease of GST-p6*-PR^NL-HA / GST-M1-PR^NL-HA fusion precursor (proximal site) (Human immunodeficiency virus type 1, UniProt P12497); experiment: P site cleavage reaction mediated by the embedded protease, PR^NL fusion precursor, HEK293T cells; format: cell-based, HIV-1; conditions: darunavir; embedded vs released protease
Method: (§1) HEK293T cells (ATCC, Manassas, VA) were maintained in DMEM containing 10% fetal bovine serum and penicillin/streptomycin (0.6% Penicillin G sodium salt, 1.0% Streptomycin sulfate, 0.85% NaCl). Plasmid DNA was transfected into HEK293T cells using calcium phosphate as previously described [25, 46]. Briefly, HEK293T cells were seeded in 12-well plates the day before transfection to achieve 50~60% confluence at the time of transfection. About 1 h prior to transfection, chloroquine was added into each well to a final concentration of 25 μM. A total of 0.5 μg plasmid DNA in 65.7 μl H2O was mixed with 9.3 μl of 2 M CaCl2. Then 75 μl of 2xHBS (50 mM Hepes, pH7.04~7.05, 10 mM KCl, 12 mM Dextrose, 280 mM NaCl, 1.5 mM Na2HPO4) was added to the DNA-Ca mixture followed by gentle agitation. The resulting mixture was directly added drop-wise to each well. […] After 7-8 h incubation at 37°C, 5% CO2, the transfection medium was replaced with fresh chloroquine-free medium containing the corresponding protease inhibitors. […]
(§2) For quantification of protein intensity, Western blot images captured by an Odyssey infrared dual laser scanning unit were analyzed using TotalLab software (Nonlinear Dynamics Inc.). The total pixel volume of each band was quantified and normalized; the highest value was arbitrarily set at 1000.

PR^NL H69D precursor = target: T1, PR^NL H69D precursor (Human immunodeficiency virus type 1 group M subtype B, UniProt P12497, H557D); format: cell-based, HIV-1; conditions: darunavir, Figure 2F
T1 construct: expressed in transfected cells; host or cells: HEK293T
Method: as §1, §2

[2] = system: embedded protease of GST-M2-PR (tagless precursor); experiment: P site cleavage reaction, tagless precursor GST-M2-PR; format: cell-based, HIV-1; parameters: dose or concentration left out as unconfirmed; conditions: […] nM darunavir
From the text: To examine whether different amino acid sequences fused to the C-terminus of PR influence protease autoprocessing, we engineered a panel of fusion precursors carrying different C-terminal epitopes (Figure 5A). A truncated version of M2 p6* (Figure 2A) was used to allow focused examination of the P site cleavage reaction. We also constructed GST-M2-PR, a precursor lacking any C-terminal epitope, to serve as a reference control.
HEK293T cells (ATCC, Manassas, VA) were maintained in DMEM containing 10% fetal bovine serum and penicillin/streptomycin (0.6% Penicillin G sodium salt, 1.0% Streptomycin sulfate, 0.85% NaCl). Plasmid DNA was transfected into HEK293T cells using calcium phosphate as previously described [25, 46]. Briefly, HEK293T cells were seeded in 12-well plates the day before transfection to achieve 50~60% confluence at the time of transfection. About 1 h prior to transfection, chloroquine was added into each well to a final concentration of 25 μM. A total of 0.5 μg plasmid DNA in 65.7 μl H2O was mixed with 9.3 μl of 2 M CaCl2. […]
as §2

[3] = system: HIV-1 infected cells (p24 production); conditions: ref [40],[41], read-out: IC50 to inhibit the production of p24; cited from earlier work
mature protease = conditions: ref [40],[41]; cited from earlier work
[4] = system: in vitro translated Gag-Pol precursor; parameters: method as in PMID 15280456; conditions: ref [21]; cited from earlier work

Row | SMILES | embedded protease less sensitive to inhibition than the corresponding released protease [1] | suppression of autoprocessing reactions mediated by the embedded H69D PR (PR^NL H69D precursor) | effect of treatment on the amount of the released proteases (H69D) (PR^NL H69D precursor; PR^NL H69D precursor) | suppression of the cleavage reaction, tagless precursor [2] | IC50 [3] [nM] | affinity for the catalytic site of the mature protease (mature protease) | sensitivity of Gag-Pol precursor to inhibition compared to the mature protease [4]
1 | CC(C)CN(C[C@@H](O)[C@H](Cc1ccccc1)NC(=O)O[C@H]1CO[C@H]2OCC[C@H]21)S(=O)(=O)c1ccc(N)cc1 [darunavir] | at least 100 fold | not suppressed | did not increase | not suppressed | ~5 | low nanomolar | –
2 | CC(C)c1nc(CN(C)C(=O)N[C@H](C(=O)N[C@@H](Cc2ccccc2)C[C@H](O)[C@H](Cc2ccccc2)NC(=O)OCc2cncs2)C(C)C)cs1 [ritonavir] | – | – | – | – | – | – | significantly low sensitivity
